How the values were obtained:
[1] = target: T1, Type-2 angiotensin II receptor (Homo sapiens, UniProt P50052); format: cell-based; conditions: cho-k1; note: in other assays of this panel Not Active means under 50% inhibition at 10 µM
T1 sequence (P50052 whole entry): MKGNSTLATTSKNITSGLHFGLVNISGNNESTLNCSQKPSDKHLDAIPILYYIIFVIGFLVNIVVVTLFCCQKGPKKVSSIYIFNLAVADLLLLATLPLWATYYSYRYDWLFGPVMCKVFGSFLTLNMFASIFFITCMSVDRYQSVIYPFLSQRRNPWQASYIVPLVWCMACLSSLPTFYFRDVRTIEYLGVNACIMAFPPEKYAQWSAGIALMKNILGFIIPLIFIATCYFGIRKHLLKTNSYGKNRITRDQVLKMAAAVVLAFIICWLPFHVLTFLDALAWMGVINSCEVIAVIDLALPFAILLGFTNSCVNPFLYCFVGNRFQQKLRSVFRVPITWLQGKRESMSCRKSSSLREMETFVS

[2] = target: Mitogen-activated protein kinase 1 (Homo sapiens, UniProt P28482); test: DRUGMATRIX: Protein Serine/Threonine Kinase, ERK2 enzyme inhibition (substrate: Myelin Basic Protein); design: species or system Escherichia coli; conditions: Not Active = under 50% inhibition at 10 µM
[3] = target: T2, Neuropeptide Y receptor type 1 (Homo sapiens, UniProt P25929); format: cell membranes, Membrane; conditions: sk-n-mc; note: in other assays of this panel Not Active means under 50% inhibition at 10 µM
T2 sequence (P25929 whole entry): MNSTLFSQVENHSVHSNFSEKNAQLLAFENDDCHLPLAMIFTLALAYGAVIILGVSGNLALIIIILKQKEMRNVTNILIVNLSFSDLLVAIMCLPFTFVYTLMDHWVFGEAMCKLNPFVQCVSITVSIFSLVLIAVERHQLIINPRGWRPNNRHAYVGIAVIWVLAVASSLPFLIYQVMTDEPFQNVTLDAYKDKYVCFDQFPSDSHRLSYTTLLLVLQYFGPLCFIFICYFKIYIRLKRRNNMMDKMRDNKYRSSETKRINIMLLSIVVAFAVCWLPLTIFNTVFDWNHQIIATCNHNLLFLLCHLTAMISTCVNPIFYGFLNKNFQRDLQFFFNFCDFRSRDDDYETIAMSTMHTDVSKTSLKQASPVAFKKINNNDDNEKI

[4] = target: Aldo-keto reductase family 1 member B1 (Rattus norvegicus, UniProt P07943); format: tissue-based, Lens of camera-type eye;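 note: inhibition of aldose reductase enzyme activity, measured with DL-glyceraldehyde as the substrate; in other assays of this panel Not Active means under 50% inhibition at 10 µM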
[5] = DRUGMATRIX: Glutamate, NMDA, Agonism radioligand binding (ligand: [3H] CGP-39653); format: cell membranes, Rattus norvegicus, Wistar, Cerebral cortex, Membrane; conditions: Not Active = under 50% inhibition at 10 µM
Cytochrome P450 3A4 = Cytochrome P450 3A4 (Homo sapiens, UniProt P08684); conditions: bti-tn-5b1-4; note: in other assays of this panel Not Active means under 50% inhibition at 10 µM
[6] = DRUGMATRIX: Platelet-Derived Growth Factor (PDGF) radioligand binding (ligand: [125I] PDGF); format: cell-based; conditions: nih3t3; Not Active = under 50% inhibition at 10 µM
[7] = target: Tyrosine-protein kinase Fyn (Homo sapiens, UniProt P06241); test: biochemical; format: cell-based, Insect cells; conditions: insect cells
[8] = target: T3, C-C chemokine receptor type 4 (Homo sapiens, UniProt P51679); format: cell membranes, Membrane; conditions: chem-1; note: in other assays of this panel Not Active means under 50% inhibition at 10 µM
T3 sequence (P51679 whole entry): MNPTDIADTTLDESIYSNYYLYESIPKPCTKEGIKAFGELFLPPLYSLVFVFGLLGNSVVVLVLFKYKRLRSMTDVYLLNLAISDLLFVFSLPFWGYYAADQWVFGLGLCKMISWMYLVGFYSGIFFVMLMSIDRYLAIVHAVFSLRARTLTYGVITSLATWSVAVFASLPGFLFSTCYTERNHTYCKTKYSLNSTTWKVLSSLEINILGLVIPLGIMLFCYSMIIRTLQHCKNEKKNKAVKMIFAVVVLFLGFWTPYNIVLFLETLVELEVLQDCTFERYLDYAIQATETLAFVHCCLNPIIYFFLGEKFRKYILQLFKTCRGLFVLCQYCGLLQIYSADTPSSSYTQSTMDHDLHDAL

[9] = target: Voltage-gated inwardly rectifying potassium channel KCNH2 (Homo sapiens, UniProt Q12809); conditions: hek293; note: in other assays of this panel Not Active means under 50% inhibition at 10 µM
Acetylcholinesterase = Acetylcholinesterase (Homo sapiens, UniProt P22303); test: DRUGMATRIX: Acetylcholinesterase enzyme inhibition (substrate: acetylthiocholine); format: cell-based, HEK293; conditions: hek293; Not Active = under 50% inhibition at 10 µM
Substance-K receptor = target: T4, Substance-K receptor (Homo sapiens, UniProt P21452); format: cell membranes, CHO, Membrane; conditions: cho; note: in other assays of this panel Not Active means under 50% inhibition at 10 µM
T4 sequence (P21452 whole entry): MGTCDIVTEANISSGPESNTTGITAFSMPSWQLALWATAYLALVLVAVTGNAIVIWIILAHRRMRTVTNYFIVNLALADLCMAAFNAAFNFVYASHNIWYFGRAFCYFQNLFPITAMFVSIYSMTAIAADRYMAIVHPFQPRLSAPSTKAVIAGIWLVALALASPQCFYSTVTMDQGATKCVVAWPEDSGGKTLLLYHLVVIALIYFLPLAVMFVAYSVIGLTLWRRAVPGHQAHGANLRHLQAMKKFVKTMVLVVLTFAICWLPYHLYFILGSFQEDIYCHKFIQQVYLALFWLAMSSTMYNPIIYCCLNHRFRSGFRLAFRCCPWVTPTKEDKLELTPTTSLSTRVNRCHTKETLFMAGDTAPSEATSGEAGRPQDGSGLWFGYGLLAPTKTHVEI

[10] = DRUGMATRIX: Glutamate, NMDA, Phencyclidine radioligand binding (ligand: [3H] TCP); format: cell membranes, Rattus norvegicus, Wistar, Cerebral cortex, Membrane; conditions: Not Active = under 50% inhibition at 10 µM
[11] = target: Mitogen-activated protein kinase 3 (Homo sapiens, UniProt P27361); test: DRUGMATRIX: Protein Serine/Threonine Kinase, ERK1 enzyme inhibition (substrate: Myelin Basic Protein); design: species or system Escherichia coli; conditions: Not Active = under 50% inhibition at 10 µM
[12] = DRUGMATRIX: Calcium Channel Type L, Benzothiazepine radioligand binding (ligand: [3H] Diltiazem); format: cell membranes, Rattus norvegicus, Wistar, Brain, Membrane; conditions: Not Active = under 50% inhibition at 10 µM

Chain of Cytochrome P450 3A4 (P08684 whole entry): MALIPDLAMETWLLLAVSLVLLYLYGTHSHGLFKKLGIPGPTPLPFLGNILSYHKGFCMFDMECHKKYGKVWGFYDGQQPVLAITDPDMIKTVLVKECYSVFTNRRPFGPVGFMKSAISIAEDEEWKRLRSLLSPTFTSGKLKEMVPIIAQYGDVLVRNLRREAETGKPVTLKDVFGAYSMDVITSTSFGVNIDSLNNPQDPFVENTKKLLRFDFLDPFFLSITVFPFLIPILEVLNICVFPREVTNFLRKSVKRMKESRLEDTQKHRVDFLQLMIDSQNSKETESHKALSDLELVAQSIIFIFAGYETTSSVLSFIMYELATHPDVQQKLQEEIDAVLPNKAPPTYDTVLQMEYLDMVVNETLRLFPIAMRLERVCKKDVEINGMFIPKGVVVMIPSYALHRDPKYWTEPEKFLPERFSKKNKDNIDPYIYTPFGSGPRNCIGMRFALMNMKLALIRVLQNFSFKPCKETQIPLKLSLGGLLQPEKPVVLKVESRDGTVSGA
Chain of Acetylcholinesterase (P22303 whole entry): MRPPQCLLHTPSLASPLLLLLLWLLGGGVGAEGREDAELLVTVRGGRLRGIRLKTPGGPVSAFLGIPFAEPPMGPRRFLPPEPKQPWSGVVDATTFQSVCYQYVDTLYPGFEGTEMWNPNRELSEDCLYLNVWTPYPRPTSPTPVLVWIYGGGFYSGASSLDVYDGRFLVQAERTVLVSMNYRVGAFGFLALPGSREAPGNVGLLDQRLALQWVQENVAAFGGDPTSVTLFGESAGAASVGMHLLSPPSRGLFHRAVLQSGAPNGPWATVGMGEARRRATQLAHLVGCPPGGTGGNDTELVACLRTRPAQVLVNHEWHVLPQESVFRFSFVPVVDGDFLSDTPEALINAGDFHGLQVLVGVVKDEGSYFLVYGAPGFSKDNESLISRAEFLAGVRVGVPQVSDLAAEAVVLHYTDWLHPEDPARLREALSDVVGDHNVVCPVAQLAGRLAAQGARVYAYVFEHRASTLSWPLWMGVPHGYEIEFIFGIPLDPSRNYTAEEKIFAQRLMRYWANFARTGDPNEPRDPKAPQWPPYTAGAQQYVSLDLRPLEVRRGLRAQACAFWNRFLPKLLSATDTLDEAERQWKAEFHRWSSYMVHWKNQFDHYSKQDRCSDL
Chain of Mitogen-activated protein kinase 3 (P27361 whole entry): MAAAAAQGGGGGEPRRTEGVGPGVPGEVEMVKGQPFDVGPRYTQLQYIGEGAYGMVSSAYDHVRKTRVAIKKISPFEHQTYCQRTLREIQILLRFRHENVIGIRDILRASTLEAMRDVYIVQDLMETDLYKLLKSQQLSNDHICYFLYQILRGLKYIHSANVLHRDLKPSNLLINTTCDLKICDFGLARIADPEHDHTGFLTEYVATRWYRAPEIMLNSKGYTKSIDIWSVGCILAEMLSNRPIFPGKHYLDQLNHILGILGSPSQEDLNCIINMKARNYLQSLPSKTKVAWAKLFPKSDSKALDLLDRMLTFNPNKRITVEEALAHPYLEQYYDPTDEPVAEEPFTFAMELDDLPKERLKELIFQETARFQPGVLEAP
Chain of Voltage-gated inwardly rectifying potassium channel KCNH2 (Q12809 whole entry): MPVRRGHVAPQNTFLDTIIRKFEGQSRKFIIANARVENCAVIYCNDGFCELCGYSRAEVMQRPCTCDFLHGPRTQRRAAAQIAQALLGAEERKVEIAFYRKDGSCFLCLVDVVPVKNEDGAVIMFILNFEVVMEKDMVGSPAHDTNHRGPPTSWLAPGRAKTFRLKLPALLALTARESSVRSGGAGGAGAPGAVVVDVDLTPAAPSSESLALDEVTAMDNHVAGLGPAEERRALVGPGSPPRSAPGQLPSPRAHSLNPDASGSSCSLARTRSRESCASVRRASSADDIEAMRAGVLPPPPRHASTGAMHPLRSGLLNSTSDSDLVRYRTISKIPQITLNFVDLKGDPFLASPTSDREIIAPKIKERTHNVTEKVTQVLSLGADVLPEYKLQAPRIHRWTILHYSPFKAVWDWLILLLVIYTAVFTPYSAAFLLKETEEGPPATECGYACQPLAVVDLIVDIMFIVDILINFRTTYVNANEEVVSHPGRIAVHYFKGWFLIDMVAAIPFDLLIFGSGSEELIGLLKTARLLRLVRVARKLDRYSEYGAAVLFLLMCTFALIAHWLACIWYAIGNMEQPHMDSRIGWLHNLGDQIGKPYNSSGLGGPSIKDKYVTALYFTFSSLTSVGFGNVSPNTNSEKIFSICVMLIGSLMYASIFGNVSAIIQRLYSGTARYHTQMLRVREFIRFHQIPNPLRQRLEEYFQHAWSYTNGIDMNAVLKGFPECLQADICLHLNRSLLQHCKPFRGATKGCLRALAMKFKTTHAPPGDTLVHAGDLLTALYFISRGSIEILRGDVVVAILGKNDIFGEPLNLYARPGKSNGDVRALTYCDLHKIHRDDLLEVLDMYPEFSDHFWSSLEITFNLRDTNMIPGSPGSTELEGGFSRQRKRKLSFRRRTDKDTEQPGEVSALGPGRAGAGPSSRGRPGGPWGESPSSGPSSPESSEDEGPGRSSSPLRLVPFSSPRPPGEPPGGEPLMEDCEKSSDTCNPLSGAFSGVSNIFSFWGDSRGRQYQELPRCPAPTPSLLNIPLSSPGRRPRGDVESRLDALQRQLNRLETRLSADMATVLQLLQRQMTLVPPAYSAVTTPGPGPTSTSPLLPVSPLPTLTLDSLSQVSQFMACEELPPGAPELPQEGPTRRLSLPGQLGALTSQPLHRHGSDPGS
Chain of Mitogen-activated protein kinase 1 (P28482 whole entry): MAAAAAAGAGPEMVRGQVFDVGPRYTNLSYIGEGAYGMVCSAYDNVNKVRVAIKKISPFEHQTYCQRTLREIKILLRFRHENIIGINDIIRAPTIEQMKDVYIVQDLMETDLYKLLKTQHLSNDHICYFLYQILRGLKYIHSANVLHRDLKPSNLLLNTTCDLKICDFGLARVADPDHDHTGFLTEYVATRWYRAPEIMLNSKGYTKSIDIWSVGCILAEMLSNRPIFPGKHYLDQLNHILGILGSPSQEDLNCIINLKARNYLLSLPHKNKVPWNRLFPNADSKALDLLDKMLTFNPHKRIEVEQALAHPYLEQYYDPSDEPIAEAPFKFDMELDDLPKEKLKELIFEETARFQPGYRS
Chain of Tyrosine-protein kinase Fyn (P06241 whole entry): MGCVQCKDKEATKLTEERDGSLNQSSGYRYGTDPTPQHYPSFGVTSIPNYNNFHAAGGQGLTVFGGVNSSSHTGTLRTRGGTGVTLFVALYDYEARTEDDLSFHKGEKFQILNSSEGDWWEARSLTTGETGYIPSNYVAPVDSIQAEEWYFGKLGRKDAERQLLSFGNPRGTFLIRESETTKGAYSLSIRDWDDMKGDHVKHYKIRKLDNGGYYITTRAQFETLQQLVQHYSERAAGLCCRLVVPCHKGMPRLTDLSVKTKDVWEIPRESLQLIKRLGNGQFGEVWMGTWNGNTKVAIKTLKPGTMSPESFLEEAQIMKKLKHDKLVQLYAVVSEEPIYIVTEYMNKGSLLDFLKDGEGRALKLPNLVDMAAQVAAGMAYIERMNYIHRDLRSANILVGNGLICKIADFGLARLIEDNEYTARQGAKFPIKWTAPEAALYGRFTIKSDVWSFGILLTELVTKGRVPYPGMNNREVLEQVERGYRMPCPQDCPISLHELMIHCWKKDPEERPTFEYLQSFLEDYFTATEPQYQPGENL

CCc1ccc(C(=O)C(C)CN2CCCCC2)cc1 (stereo not drawn) [EPERISONE]
Not Active: IC50 [1] | IC50 [2] | IC50 [3] | IC50 [4] | IC50 [5] | Ki [5] | IC50 (Cytochrome P450 3A4) | Ki (Cytochrome P450 3A4) | IC50 [6] | Ki [6] | IC50 [7] | IC50 [8] | IC50 [9] | Ki [9] | IC50 (Acetylcholinesterase) | IC50 (Substance-K receptor) | IC50 [10] | Ki [10] | IC50 [11] | IC50 [12] | Ki [12]

C=C1CC[C@H](O)C/C1=C/C=C1\CCC[C@]2(C)[C@@H]([C@H](C)/C=C/[C@H](C)C(C)C)CC[C@@H]12 [ERGOCALCIFEROL]
Not Active: IC50 [1] | IC50 [2] | IC50 [3] | IC50 [4] | IC50 [5] | Ki [5] | IC50 (Cytochrome P450 3A4) | Ki (Cytochrome P450 3A4) | IC50 [6] | Ki [6] | IC50 [7] | IC50 [8] | IC50 [9] | Ki [9] | IC50 (Acetylcholinesterase) | IC50 (Substance-K receptor) | IC50 [10] | Ki [10] | IC50 [11] | IC50 [12] | Ki [12]

CCc1cccc2c3c([nH]c12)C(CC)(CC(=O)O)OCC3 (stereo not drawn) [ETODOLAC]
Not Active: IC50 [1] | IC50 [2] | IC50 [3] | IC50 [4] | IC50 [5] | Ki [5] | IC50 (Cytochrome P450 3A4) | Ki (Cytochrome P450 3A4) | IC50 [6] | Ki [6] | IC50 [7] | IC50 [8] | IC50 [9] | Ki [9] | IC50 (Acetylcholinesterase) | IC50 (Substance-K receptor) | IC50 [10] | Ki [10] | IC50 [11] | IC50 [12] | Ki [12]

Nc1nc(=O)[nH]cc1F [FLUCYTOSINE]
Not Active: IC50 [1] | IC50 [2] | IC50 [3] | IC50 [4] | IC50 [5] | Ki [5] | IC50 (Cytochrome P450 3A4) | Ki (Cytochrome P450 3A4) | IC50 [6] | Ki [6] | IC50 [7] | IC50 [8] | IC50 [9] | Ki [9] | IC50 (Acetylcholinesterase) | IC50 (Substance-K receptor) | IC50 [10] | Ki [10] | IC50 [11] | IC50 [12] | Ki [12]

O=C1OC2(c3ccc(O)cc3Oc3cc(O)ccc32)c2ccccc21 [FLUORESCEIN]
Not Active: IC50 [1] | IC50 [2] | IC50 [3] | IC50 [4] | IC50 [5] | Ki [5] | IC50 (Cytochrome P450 3A4) | Ki (Cytochrome P450 3A4) | IC50 [6] | Ki [6] | IC50 [7] | IC50 [8] | IC50 [9] | Ki [9] | IC50 (Acetylcholinesterase) | IC50 (Substance-K receptor) | IC50 [10] | Ki [10] | IC50 [11] | IC50 [12] | Ki [12]

CC(=O)[C@@]1(O)CC[C@H]2[C@@H]3C[C@H](C)C4=CC(=O)C=C[C@]4(C)[C@@]3(F)[C@@H](O)C[C@@]21C [FLUOROMETHOLONE]
Not Active: IC50 [1] | IC50 [2] | IC50 [3] | IC50 [4] | IC50 [5] | Ki [5] | IC50 (Cytochrome P450 3A4) | Ki (Cytochrome P450 3A4) | IC50 [6] | Ki [6] | IC50 [7] | IC50 [8] | IC50 [9] | Ki [9] | IC50 (Acetylcholinesterase) | IC50 (Substance-K receptor) | IC50 [10] | Ki [10] | IC50 [11] | IC50 [12] | Ki [12]

O=c1[nH]cc(F)c(=O)[nH]1 [FLUOROURACIL]
Not Active: IC50 [1] | IC50 [2] | IC50 [3] | IC50 [4] | IC50 [5] | Ki [5] | IC50 (Cytochrome P450 3A4) | Ki (Cytochrome P450 3A4) | IC50 [6] | Ki [6] | IC50 [7] | IC50 [8] | IC50 [9] | Ki [9] | IC50 (Acetylcholinesterase) | IC50 (Substance-K receptor) | IC50 [10] | Ki [10] | IC50 [11] | IC50 [12] | Ki [12]

CC(C)n1c(/C=C/C(O)CC(O)CC(=O)O)c(-c2ccc(F)cc2)c2ccccc21 (stereo not drawn) [FLUVASTATIN]
Not Active: IC50 [1] | IC50 [2] | IC50 [3] | IC50 [4] | IC50 [5] | Ki [5] | IC50 (Cytochrome P450 3A4) | Ki (Cytochrome P450 3A4) | IC50 [6] | Ki [6] | IC50 [7] | IC50 [8] | IC50 [9] | Ki [9] | IC50 (Acetylcholinesterase) | IC50 (Substance-K receptor) | IC50 [10] | Ki [10] | IC50 [11] | IC50 [12] | Ki [12]

Source: ChEMBL document CHEMBL1909046, “DrugMatrix in vitro pharmacology data”
